29 compounds from ChEMBL document CHEMBL1212924 (J Med Chem, 2010) can be followed below.

One data set is described as follows: in vitro. The conditions noted are these: human, liver microsomes. For orientation: Liver microsomes are a subcellular fraction often used to study metabolism.
Data set [1] in a line: Half life in rat at 1 mg/kg, iv and 2 mg/kg, po. In kind it is ADME, organism-based. The conditions noted are these: in vivo.
Data set [2] in a line: Oral bioavailability in rat at 2 mg/kg. It is filed as ADME, organism-based. The note with it: in vivo.
Data set [3] can be described thus: Clearance in rat at 1 mg/kg, iv and 2 mg/kg, po. It is filed as ADME, organism-based. The conditions noted are these: in vivo.
The nature of data set [4]: Volume of distribution in rat at 1 mg/kg, iv and 2 mg/kg, po. In kind it is ADME, organism-based. The note with it: in vivo.
Data set [5] concerns the target Rho-associated protein kinase 2 (Homo sapiens, UniProt O75116).
For data set [6], the target named is Rho-associated protein kinase 1 (Homo sapiens, UniProt Q13464).
Rho-associated protein kinase 1, sequence (Q13464 whole entry): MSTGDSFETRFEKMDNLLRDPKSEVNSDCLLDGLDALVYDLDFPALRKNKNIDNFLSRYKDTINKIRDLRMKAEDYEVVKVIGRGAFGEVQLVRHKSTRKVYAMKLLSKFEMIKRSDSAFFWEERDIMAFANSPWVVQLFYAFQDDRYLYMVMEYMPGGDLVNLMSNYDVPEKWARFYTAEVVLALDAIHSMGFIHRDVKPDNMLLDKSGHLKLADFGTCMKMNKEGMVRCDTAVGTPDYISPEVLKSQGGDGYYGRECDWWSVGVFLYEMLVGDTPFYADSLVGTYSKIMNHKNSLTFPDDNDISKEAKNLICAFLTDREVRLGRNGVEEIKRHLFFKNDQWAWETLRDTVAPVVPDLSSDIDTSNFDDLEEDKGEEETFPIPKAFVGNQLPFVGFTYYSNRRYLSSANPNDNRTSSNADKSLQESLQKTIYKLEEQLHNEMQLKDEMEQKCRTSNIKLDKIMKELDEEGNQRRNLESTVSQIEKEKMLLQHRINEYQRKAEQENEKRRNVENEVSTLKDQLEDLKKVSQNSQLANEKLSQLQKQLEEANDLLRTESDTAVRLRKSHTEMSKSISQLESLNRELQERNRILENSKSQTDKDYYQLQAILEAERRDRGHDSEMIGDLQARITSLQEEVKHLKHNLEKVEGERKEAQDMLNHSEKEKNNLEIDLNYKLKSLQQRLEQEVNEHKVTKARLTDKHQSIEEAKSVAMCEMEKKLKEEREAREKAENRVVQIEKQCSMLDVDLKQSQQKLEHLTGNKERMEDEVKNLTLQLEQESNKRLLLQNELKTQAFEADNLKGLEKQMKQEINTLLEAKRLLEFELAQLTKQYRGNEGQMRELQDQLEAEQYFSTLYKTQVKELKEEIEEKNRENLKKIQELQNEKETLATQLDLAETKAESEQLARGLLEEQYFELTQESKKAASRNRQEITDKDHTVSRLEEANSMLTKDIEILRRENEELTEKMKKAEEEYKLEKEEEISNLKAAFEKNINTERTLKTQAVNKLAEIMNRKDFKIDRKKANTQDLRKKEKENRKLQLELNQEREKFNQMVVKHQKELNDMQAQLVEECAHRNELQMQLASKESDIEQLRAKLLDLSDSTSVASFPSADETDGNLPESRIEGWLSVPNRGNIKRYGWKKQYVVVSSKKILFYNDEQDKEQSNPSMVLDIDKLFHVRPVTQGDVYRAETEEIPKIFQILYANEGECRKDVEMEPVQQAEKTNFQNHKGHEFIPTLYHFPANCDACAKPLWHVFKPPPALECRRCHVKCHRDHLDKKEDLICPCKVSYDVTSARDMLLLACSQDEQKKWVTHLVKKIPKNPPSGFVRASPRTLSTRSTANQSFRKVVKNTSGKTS
The target of data set [7] is Serine/threonine-protein kinase MRCK alpha (Homo sapiens, UniProt Q5VT25). The data set can be described thus: Inhibition of MRCKalpha.
Serine/threonine-protein kinase MRCK alpha, sequence (Q5VT25 whole entry): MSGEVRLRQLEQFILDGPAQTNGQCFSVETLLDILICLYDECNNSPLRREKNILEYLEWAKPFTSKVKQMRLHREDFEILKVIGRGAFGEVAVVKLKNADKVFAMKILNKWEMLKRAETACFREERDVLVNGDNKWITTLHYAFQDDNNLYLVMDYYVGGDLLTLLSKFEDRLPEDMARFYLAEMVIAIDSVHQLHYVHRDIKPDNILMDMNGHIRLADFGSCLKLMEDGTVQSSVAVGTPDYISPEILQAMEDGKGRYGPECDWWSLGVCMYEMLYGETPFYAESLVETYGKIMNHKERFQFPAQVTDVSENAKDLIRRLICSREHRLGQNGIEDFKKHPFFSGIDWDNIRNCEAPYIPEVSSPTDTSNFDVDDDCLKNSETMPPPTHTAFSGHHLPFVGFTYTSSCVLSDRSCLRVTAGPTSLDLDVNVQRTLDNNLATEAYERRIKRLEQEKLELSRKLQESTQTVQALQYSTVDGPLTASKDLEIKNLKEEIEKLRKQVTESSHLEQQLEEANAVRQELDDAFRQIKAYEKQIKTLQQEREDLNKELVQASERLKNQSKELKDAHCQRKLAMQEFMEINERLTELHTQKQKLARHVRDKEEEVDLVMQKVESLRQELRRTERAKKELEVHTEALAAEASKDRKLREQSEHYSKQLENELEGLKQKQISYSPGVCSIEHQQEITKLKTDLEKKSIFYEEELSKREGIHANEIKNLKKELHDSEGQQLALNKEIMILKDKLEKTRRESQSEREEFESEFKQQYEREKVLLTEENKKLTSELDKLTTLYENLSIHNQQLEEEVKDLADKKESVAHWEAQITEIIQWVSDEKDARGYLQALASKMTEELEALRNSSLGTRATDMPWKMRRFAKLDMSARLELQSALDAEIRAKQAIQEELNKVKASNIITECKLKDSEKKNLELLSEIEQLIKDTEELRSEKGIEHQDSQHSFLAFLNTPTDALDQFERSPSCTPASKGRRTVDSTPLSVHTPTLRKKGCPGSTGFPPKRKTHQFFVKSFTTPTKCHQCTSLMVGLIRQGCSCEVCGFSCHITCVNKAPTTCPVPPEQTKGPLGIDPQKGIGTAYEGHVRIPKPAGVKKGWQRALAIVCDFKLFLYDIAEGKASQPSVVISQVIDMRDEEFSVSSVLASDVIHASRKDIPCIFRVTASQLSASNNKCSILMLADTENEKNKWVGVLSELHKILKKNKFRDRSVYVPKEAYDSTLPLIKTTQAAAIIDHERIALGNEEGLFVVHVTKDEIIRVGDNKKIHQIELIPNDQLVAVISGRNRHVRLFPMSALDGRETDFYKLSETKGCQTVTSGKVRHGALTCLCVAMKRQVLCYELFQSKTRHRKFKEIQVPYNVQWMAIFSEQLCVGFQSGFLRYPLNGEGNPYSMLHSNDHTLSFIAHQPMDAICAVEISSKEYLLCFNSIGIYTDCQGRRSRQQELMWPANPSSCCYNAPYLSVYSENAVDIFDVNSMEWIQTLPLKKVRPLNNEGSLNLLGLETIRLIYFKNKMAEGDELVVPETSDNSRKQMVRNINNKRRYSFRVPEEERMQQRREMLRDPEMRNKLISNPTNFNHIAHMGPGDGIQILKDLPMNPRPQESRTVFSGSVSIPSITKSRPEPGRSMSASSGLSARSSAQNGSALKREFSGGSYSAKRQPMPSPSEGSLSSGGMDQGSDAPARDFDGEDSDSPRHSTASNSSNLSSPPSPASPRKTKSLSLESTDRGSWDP
The target of a further data set is CYP2D6 (Homo sapiens, UniProt P10635). Kind of data set: Inhibition of CYP2D6 at 10 uM. It is filed as ADME.
CYP2D6, sequence (P10635 whole entry): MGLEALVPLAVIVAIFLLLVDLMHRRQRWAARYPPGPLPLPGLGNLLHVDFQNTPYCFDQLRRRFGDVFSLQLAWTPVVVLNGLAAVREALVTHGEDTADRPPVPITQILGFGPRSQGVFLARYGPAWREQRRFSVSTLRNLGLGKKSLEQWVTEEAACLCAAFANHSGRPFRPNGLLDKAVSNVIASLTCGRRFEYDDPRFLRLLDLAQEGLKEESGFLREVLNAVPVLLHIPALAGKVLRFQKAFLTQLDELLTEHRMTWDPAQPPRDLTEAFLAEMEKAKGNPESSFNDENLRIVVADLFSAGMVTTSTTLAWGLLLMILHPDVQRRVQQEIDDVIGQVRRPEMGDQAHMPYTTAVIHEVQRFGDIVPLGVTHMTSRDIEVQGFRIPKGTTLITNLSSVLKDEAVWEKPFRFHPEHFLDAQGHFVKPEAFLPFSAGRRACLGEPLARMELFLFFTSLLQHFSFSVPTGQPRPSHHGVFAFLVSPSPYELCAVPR
Data set [8] has as its target Mitogen-activated protein kinase 10 (Homo sapiens, UniProt P53779).
The next data set addresses CYP2C9 (Homo sapiens, UniProt P11712). Kind of data set: Inhibition of CYP2C9 at 10 uM. In kind it is ADME.
For the next data set, the target named is CYP3A4 (Homo sapiens, UniProt P08684). The data set can be described thus: Inhibition of CYP3A4 at 10 uM. In kind it is ADME.
CYP3A4, sequence (P08684 whole entry): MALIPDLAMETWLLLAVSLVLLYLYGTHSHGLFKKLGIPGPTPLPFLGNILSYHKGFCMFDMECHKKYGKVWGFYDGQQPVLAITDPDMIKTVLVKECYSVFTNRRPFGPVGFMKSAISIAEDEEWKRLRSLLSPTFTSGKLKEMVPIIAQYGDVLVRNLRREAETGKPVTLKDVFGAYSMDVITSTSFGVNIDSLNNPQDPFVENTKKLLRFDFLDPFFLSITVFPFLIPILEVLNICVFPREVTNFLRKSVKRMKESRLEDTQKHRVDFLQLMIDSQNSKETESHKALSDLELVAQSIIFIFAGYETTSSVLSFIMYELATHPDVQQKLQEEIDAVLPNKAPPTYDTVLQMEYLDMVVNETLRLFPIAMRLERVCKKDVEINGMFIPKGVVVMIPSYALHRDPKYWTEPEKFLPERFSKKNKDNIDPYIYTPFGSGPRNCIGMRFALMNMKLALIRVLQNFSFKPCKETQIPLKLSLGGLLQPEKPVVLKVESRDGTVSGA
Data set [9] in a line: Cmax in rat at 2 mg/kg, po. In kind it is ADME, organism-based. Set-up: dose 2 mg/kg, route oral. The conditions noted are these: in vivo.
The target in a further data set is T1, CYP1A2 (Homo sapiens, UniProt P05177).
T1 sequence (P05177 whole entry): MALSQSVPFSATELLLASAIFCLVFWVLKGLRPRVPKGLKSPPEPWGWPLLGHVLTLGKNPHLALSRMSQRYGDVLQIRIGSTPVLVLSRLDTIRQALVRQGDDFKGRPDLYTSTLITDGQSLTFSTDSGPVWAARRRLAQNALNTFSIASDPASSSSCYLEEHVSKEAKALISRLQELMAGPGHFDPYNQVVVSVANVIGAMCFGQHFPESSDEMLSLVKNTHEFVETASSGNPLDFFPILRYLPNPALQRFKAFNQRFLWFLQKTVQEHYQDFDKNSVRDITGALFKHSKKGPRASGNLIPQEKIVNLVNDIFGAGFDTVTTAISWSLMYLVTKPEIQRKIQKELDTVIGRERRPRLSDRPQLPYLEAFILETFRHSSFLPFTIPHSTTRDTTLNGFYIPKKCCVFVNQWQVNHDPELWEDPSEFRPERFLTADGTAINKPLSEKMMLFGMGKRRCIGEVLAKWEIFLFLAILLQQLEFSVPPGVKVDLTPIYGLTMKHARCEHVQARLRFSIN
The data set can be described thus: Inhibition of CYP1A2 at 10 uM. It is filed as ADME.

The nature of data set [10]: Inhibition of p38.

Molecules are shown by their SMILES. pIC50: −log10 of the molar value. Some results are limits rather than exact numbers.

Mitogen-activated protein kinase 10, sequence (P53779 whole entry): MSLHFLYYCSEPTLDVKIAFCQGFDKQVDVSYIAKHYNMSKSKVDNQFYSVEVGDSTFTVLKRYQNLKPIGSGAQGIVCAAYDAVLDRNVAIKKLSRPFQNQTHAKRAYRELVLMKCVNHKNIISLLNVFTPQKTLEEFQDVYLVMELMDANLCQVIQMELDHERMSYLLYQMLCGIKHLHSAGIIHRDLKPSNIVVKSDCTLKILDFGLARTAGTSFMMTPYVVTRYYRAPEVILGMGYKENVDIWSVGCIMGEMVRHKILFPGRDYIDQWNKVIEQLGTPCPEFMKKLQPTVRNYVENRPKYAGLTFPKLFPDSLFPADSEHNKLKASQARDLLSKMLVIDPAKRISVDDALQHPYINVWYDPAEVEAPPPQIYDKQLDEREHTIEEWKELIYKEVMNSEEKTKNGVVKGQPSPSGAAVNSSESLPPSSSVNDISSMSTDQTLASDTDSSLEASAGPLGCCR
CYP2C9, sequence (P11712 whole entry): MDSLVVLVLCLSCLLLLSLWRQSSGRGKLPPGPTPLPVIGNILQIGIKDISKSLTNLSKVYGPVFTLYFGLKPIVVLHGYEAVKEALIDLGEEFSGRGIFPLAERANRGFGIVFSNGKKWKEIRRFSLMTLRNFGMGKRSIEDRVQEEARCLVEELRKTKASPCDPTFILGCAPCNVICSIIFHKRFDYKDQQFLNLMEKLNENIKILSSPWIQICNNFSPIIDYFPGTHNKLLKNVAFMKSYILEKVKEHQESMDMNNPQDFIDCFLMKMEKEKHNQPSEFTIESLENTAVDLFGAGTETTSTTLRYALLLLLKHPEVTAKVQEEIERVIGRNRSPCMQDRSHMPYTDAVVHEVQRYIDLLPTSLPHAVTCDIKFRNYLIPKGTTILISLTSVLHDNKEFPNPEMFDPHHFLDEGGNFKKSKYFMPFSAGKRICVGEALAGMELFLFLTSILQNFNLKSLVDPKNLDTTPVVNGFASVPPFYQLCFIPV
Description for in vitro: Half life in human liver microsome at 2 mg/mL

As to `CN(C)CCOc1cc(-c2cn[nH]c2)ccc1NC(=O)[C@H]1Cc2cc(Cl)ccc2CN1`, the half-life in the data set “in vitro” was found to be 2.02 h.
For the compound `CN(C)CCOc1cc(-c2cn[nH]c2)c(F)cc1NC(=O)[C@H]1Cc2ccccc2CN1C`, the half-life in the data set “in vitro” was determined as 0.267 h. Against the preceding compound, the half-life is about 7.6-fold lower.
Turning to `CCN1Cc2ccc(OC)cc2C[C@@H]1C(=O)Nc1cc(F)c(-c2cn[nH]c2)cc1OCCN(C)C`, the results for the half-life (in data set [1]; in “in vitro”) were 1.7 h and 0.183 h, respectively. In data set [2], the bioavailability came to 0%. Further, the clearance in [3] came to 130 mL/min/kg. The Vd in data set [4] was found to be 17 L/kg.
For `COc1ccc2c(c1)C[C@H](C(=O)Nc1ccc(-c3cn[nH]c3)c(F)c1OCCN(C)C)NC2`, the half-life in “in vitro” was 1.2 h.
Same read-out and setting: with `COc1ccc2c(c1)C[C@H](C(=O)Nc1ccc(-c3cn[nH]c3)cc1SCCC(=O)N(C)C)NC2` the figure was 0.05 h.
In the data set “in vitro”, `COc1ccc2c(c1)C[C@H](C(=O)Nc1ccc(-c3cn[nH]c3)cc1OC1CCN(C)CC1)NC2` displayed a half-life of 1.73 h.
`CN(C)CCOc1cc(-c2cn[nH]c2)c(F)cc1NC(=O)[C@H]1Cc2ccccc2CN1C(=O)CN(C)C` gave a pIC50 in data set [5] of 6.11. Further, the half-life in the data set “in vitro” came to 0.233 h.
Compound `CN(C)CCOc1cc(-c2cn[nH]c2)ccc1NC(=O)[C@@H]1Cc2ccccc2CN1` gave a half-life in “in vitro” of 1.63 h.
The same measure, in the same setting: with `CN(C)CCOc1cc(-c2cn[nH]c2)ccc1NC(=O)[C@H]1Cc2ccccc2CN1` the figure was 1.63 h.
With `CN(C)CCOc1cc(-c2cn[nH]c2)c(F)cc1NC(=O)[C@H]1Cc2ccccc2CN1CC1CC1`, the half-life in [1] is 2.3 h; in “in vitro”, 0.05 h. The same compound displayed a bioavailability in data set [2] of 0%. The compound further had a clearance in data set [3] of 42 mL/min/kg. The compound also came in with a Vd in data set [4] of 7 L/kg.
`COc1ccc2c(c1)C[C@H](C(=O)Nc1ccc(-c3cn[nH]c3)cc1SCCN(C)C)NC2` showed a half-life in “in vitro” of 0.367 h.
In the case of `CN(C)CCOc1cc(-c2cn[nH]c2)c(F)cc1NC(=O)[C@H]1Cc2ccccc2CN1`, the results for the half-life (in [1]; in the data set “in vitro”) were 2.7 h and 0.75 h, respectively. Moreover, the pIC50 is 7.48 in [6], 6.48 in [7], less than 4.70 in [8] and less than 4.70 in [10]. Moreover, the inhibition at 10 µM against CYP2D6 amounted to 77%; at CYP2C9, 62%; on CYP3A4, 18%; against CYP1A2 it was 31%. The bioavailability in data set [2] turned out to be 16%. In data set [3], this compound came in with a clearance of 106 mL/min/kg. The compound further returned a Vd in data set [4] of 24 L/kg. Moreover, in data set [9], the Cmax was determined as 18 nM.
Consider `COc1ccc2c(c1)C[C@@H](C(=O)Nc1ccc(-c3cn[nH]c3)cc1OCCN(C)C)NC2`, for which, in “in vitro”, the half-life stood at 1.68 h.
The same measure, in the same setting: with `COCCOc1cc(-c2cn[nH]c2)ccc1NC(=O)[C@H]1Cc2cc(OC)ccc2CN1` the figure was 0.717 h.
Compound `COc1ccc2c(c1)C[C@H](C(=O)Nc1ccc(-c3cn[nH]c3)cc1)NC2` had a pIC50 in [5] of 6.48.
As for `CCN1Cc2ccccc2C[C@@H]1C(=O)Nc1cc(F)c(-c2cn[nH]c2)cc1OCCN(C)C`, the pIC50 is 7.80 in data set [6], 6.09 in [7], less than 4.70 in data set [8] and less than 4.70 in data set [10]. For the same compound, the inhibition at 10 µM is 52% on CYP2D6, 70% on CYP2C9, 39% on CYP3A4 and -24% on CYP1A2. Besides, in the data set “in vitro”, the half-life was determined as 0.0167 h.
`CCOc1ccc2c(c1)CC(C(=O)Nc1ccc(-c3cn[nH]c3)cc1OCCN(C)C)NC2` (racemic) had a pIC50 in [5] of 6.81.
`CN(C)CCOc1cc(-c2cn[nH]c2)ccc1NC(=O)C1NCCc2ccccc21` (stereo unspecified) showed a half-life in “in vitro” of 0.233 h.
Compound `COc1ccc2c(c1)CN[C@@H](C(=O)Nc1ccc(-c3cn[nH]c3)cc1OCCN(C)C)C2` showed a pIC50 in data set [5] of 6.07.
`N[C@H](Cc1cccc(F)c1)C(=O)Nc1ccc(-c2cn[nH]c2)cc1`: the half-life in the data set “in vitro” was 1.12 h.
Same read-out and setting: with `COc1ccc2c(c1)C[C@H](C(=O)Nc1ccc(-c3c[nH]nc3C)cc1SCCN(C)C)NC2` the figure was 0.183 h.
On to `COc1ccc2c(c1)C[C@H](C(=O)Nc1ccc(-c3cn[nH]c3)cc1OCCN(C)C)NC2`, for which the half-life in data set [1] is 5.5 h. Moreover, the pIC50 in [6] was 7.32; in [7], 5.27; in data set [8], less than 4.70; in data set [10], less than 4.70. The inhibition at 10 µM at CYP2D6 was 40%; against CYP2C9, 31%; against CYP3A4, -3%; against CYP1A2, 21%. In data set [2], this compound displayed a bioavailability of 28%. The same compound registered a clearance in data set [3] of 17 mL/min/kg. Further, the Vd in data set [4] was determined as 7.2 L/kg. Also, the Cmax in data set [9] worked out at 242 nM.
On to `COc1ccc2c(c1)C[C@H](C(=O)Nc1cc(F)c(-c3cn[nH]c3)cc1OCCN(C)C)NC2`, for which the half-life is 1.5 h in data set [1] and 0.85 h in “in vitro”. In data set [2], this compound had a bioavailability of 0.3%. In data set [3], the clearance is 4.6 mL/min/kg. For the same compound, the Vd in data set [4] turned out to be 0.49 L/kg. This compound came in with a Cmax in [9] of 32 nM.
`CN(C)CCOc1cc(-c2cn[nH]c2)ccc1NC(=O)[C@@H]1Cc2cc(Cl)ccc2CN1` showed a half-life in “in vitro” of 0.283 h.
Same read-out and setting: with `COc1ccc2c(c1)C[C@H](C(=O)Nc1ccc(-c3cn[nH]c3)cc1OCCN1CCCC1)NC2` the figure was 1.05 h.
`COc1cccc2c1CNC(C(=O)Nc1ccc(-c3cn[nH]c3)cc1OCCN(C)C)C2` (racemic) had a pIC50 in [5] of 6.58.
With `COc1ccc2c(c1)C[C@H](C(=O)Nc1c(F)cc(-c3cn[nH]c3)cc1OCCN(C)C)NC2`, the half-life in the data set “in vitro” stood at 1.87 h.
Same read-out and setting: with `NC(Cc1ccc(Cl)cc1)C(=O)Nc1ccc(-c2cn[nH]c2)cc1` (stereo unspecified) the figure was 1.12 h.
On the same count and under the same terms, with `NC(C(=O)Nc1ccc(-c2cn[nH]c2)cc1)c1ccc(Cl)cc1` (stereo unspecified) the figure was 1.4 h.

As a reminder, the half-life is how long it takes for the measured level to halve. What is called bioavailability is the share of a dose that reaches the circulation, judged against a reference dose that is usually intravenous. By pIC50 is commonly meant −log10 of the IC50, conventionally taken in molar units. The inhibition is the drop in the measured response relative to a control, in per cent. As usually defined, the Cmax is the highest concentration seen after dosing.
